Molecular target: T1, 5-hydroxytryptamine receptor 1A (Rattus norvegicus, UniProt P19327)
T1 sequence (P19327 whole entry): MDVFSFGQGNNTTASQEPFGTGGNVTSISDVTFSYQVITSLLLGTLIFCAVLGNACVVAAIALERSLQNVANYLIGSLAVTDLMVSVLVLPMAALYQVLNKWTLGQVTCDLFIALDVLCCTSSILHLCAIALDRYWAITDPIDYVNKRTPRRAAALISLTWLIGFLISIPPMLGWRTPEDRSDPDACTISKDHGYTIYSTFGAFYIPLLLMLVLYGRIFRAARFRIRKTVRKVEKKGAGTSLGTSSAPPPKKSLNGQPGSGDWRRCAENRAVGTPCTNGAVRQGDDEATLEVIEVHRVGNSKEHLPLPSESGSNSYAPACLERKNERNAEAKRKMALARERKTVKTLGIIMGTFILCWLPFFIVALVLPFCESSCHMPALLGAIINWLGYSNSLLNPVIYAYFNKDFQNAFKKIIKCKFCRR
Assay: not given
Assay type: cell membranes, Membrane

Compound	Ki [nM]
COc1ccccc1CCCN(C)C	3200
COc1cccc2c1CC(NCCN1C(=O)c3ccccc3C1=O)CC2 (stereo not given)	250
COc1ccc2ccccc2c1N1CCNCC1	34
COc1cccc2c1CC(NCCCN1C(=O)c3ccccc3C1=O)CC2 (stereo not given)	48
COc1ccc2cccc(N3CCNCC3)c2c1	3.3
O=C1c2ccccc2C(=O)N1CCCCNCCCOc1cccc2ccccc12	25
COc1ccccc1CCCNCCCCN1C(=O)c2ccccc2C1=O	110
COc1ccc2[nH]cc(CCNCCCCN3C(=O)c4ccccc4C3=O)c2c1	20
COc1ccccc1CCCN(C)CCCCN1C(=O)c2ccccc2C1=O	170
CN(CCCCN1C(=O)c2ccccc2C1=O)CCc1ccccc1	300
COc1ccc2[nH]cc(CCN(C)C)c2c1 [MEBUFOTENIN]	10

Molecular target: T1, 5-hydroxytryptamine receptor 1A
Assay: Binding affinity of compound towards 5-HT 1A receptor by measuring ability to displace [3H]OH-DPAT from 5-hydroxytryptamine 1A receptor in rat hippocampal membranes

Compound	Ki [nM]
O=C1c2ccccc2C(=O)N1CCNCCCOc1cccc2ccccc12	1330

Molecular target: T1, 5-hydroxytryptamine receptor 1A
Assay: as above
Remark: another data set of the same source

Compound	Ki [nM]
COc1ccccc1N1CCN(CCCCCN2C(=O)c3ccccc3C2=O)CC1	5
CN(C)CCc1ccccc1	850
O=C1c2ccccc2C(=O)N1CCCNCCCOc1cccc2ccccc12	45

Source: ChEMBL document CHEMBL1124566, “N-(phthalimidoalkyl) derivatives of serotonergic agents: a common interaction at 5-HT1A serotonin binding sites?” (J Med Chem, 1989)
